Results as given in patent EP4603105A1, “PHARMACEUTICAL COMPOSITION CONTAINING CYCLIC COMPOUND HAVING SELECTIVE KRAS INHIBITORY EFFECT AGAINST HRAS AND NRAS” (CHUGAI SEIYAKU KABUSHIKI KAISHA, priority 2022, dated 2024).
Where a SMILES comes first, the peptide text is derived from it. Bridges are numbered along the chain shown (N, C = ends). [ ]: non-standard residue; d: D form. The star is where a group is joined. hPhe(3,5-F2-4-CF3) = N[C@@H](CCc1cc(F)c(C(F)(F)F)c(F)c1)C(=O)O; hPhe(3-Cl-4-CF3) = N[C@@H](CCc1ccc(C(F)(F)F)c(Cl)c1)C(=O)O; NPrPhe(4-CF3) = CCCN[C@@H](Cc1ccc(C(F)(F)F)cc1)C(=O)O; NMePhe(4-Me) = CN[C@@H](Cc1ccc(C)cc1)C(=O)O; NMeGly(cPent) = CN[C@H](C(=O)O)C1CCCC1; Pro(4S-Me) = C[C@@H]1CN[C@H](C(=O)O)C1; Hyp = O=C(O)[C@@H]1C[C@@H](O)CN1; NMeD = CN[C@@H](CC(=O)O)C(=O)O; NMeL = CN[C@@H](CC(C)C)C(=O)O; Morpholide = C1CN(*)CCO1; NMeAib = CNC(C)(C)C(=O)O; Nle = CCCC[C@H](N)C(=O)O; Piperidide = C1CCN(*)CC1; Ac5c = NC1(C(=O)O)CCCC1; Aze = O=C(O)[C@@H]1CCN1; Ac4c = NC1(C(=O)O)CCC1; NEtG = CCNCC(=O)O; Sar = CNCC(=O)O

Tests used:
[1] = test system: human lung cancer strain NCI-H441; type: cell-based
Method in brief: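 Readout: […] after the ATP-based reagent. Compound: serial dilutions in dimethyl sulfoxide.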

[2] = molecular target: HRAS wild-type protein (Homo sapiens, UniProt P01112); assay: Binding to HRAS by surface plasmon resonance (SPR), KD and KD ratio to KRAS
Sequence of HRAS wild-type protein (P01112 whole entry): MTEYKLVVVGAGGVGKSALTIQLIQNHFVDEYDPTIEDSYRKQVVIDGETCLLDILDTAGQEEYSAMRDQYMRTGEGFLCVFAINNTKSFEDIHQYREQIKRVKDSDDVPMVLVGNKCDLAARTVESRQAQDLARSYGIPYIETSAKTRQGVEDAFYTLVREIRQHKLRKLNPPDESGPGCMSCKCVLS
Method in brief: (§1)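 Affinity is measured by surface plasmon resonance at 30°C against captured, GDP-loaded RAS carrying a biotinylated Avi tag. Compounds are titrated by single-cycle kinetics, and KD comes from a 1:1 fit.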

[3] = molecular target: GDP-bound NRAS wild-type protein (Homo sapiens, UniProt P01111); assay: Binding to NRAS by surface plasmon resonance (SPR), KD and KD ratio to KRAS
Sequence of GDP-bound NRAS wild-type protein (P01111 whole entry): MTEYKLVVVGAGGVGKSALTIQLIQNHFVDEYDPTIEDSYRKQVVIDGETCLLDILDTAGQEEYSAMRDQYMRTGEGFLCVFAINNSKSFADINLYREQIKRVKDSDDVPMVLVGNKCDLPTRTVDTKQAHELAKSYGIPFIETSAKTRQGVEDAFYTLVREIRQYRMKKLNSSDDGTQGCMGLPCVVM
Method in brief: as §1

[4] = ratio of KD for HRAS wild-type protein to KD for KRAS
[5] = ratio of KD for GDP-bound NRAS wild-type protein to KD for KRAS
[6] = ratio of the KD value with respect to HRAS wild-type protein to the KD value with respect to KRAS
[7] = ratio of the KD value with respect to GDP-bound NRAS wild-type protein to the KD value with respect to KRAS

CCCN1C(=O)CN(C)C(=O)CN(C)C(=O)[C@H]([C@@H](C)CC)NC(=O)[C@H](CC(C)C)N(C)C(=O)C[C@@H](C(=O)N(C)C)N(C)C(=O)[C@H](C2CCCC2)N(C)C(=O)C2(CCCC2)NC(=O)[C@@H]2CCCN2C(=O)[C@H](CCc2cc(F)c(C(F)(F)F)c(F)c2)NC(=O)CN(C)C(=O)[C@@H]1Cc1ccc(C(F)(F)F)cc1 [PP0788] ([NMeL]I[Sar][Sar][NPrPhe(4-CF3)][Sar][hPhe(3,5-F2-4-CF3)]P[Ac5c][NMeGly(cPent)][NMeD]-NMe2; lactam N-11)
IC50 [1]: 7.1 nM | HRAS /KRAS [2, 4]: C (A compound having a KD ratio of 0.1 or more and less than 3 is denoted as C) | NRAS /KRAS [3, 5]: B (a compound having 3 or more and less than 10 is denoted as B)

C#CC[C@H]1C(=O)N[C@@H]([C@@H](C)CC)C(=O)N(C)CC(=O)N(C)[C@H]2C/C=C\CCN(C2=O)[C@@H](Cc2ccc(C(F)(F)F)cc2)C(=O)N(C)CC(=O)N[C@@H](CCc2cc(F)c(C(F)(F)F)c(F)c2)C(=O)N2C[C@H](F)C[C@H]2C(=O)NC2(CC(C)(C)C2)C(=O)N(C)[C@@H](C2CCCC2)C(=O)N(C)[C@H](C(=O)N(C)CCC)CC(=O)N1C [PP1692]
IC50 [1]: 4.3 nM | HRAS /KRAS ([2]; ratio of KD value for HRAS wild-type protein to KD value for KRAS (SPR)): A (a compound having 10 or more and less than 20 is denoted as A) | NRAS /KRAS ([3]; ratio of KD value for GDP-bound NRAS wild-type protein to KD value for KRAS (SPR)): AA (a compound having 20 or more is denoted as AA)

C#CC[C@H]1C(=O)N[C@@H]([C@@H](C)CC)C(=O)N(C)CC(=O)N(C)[C@H]2CCCCN(C2=O)[C@@H](Cc2ccc(C(F)(F)F)cc2)C(=O)N(C)CC(=O)N[C@@H](CCc2cc(F)c(C(F)(F)F)c(F)c2)C(=O)N2C[C@H](OCC)C[C@H]2C(=O)NC2(CCC2)C(=O)N(C)[C@@H](C2CCCC2)C(=O)N(C)[C@H](C(=O)N(C)C)CC(=O)N1C [PP0696]
IC50 [1]: 3.3 nM | HRAS /KRAS [2, 6]: B (a compound having 3 or more and less than 10 is denoted as B) | NRAS /KRAS [3, 7]: B (a compound having 3 or more and less than 10 is denoted as B)

CCO[C@@H]1C[C@H]2C(=O)NC3(CCC3)C(=O)N(C)[C@@H](C3CCCC3)C(=O)N(C)[C@H](C(=O)N3CCOCC3)CC(=O)N(C)[C@@H](CC(C)C)C(=O)N[C@@H]([C@@H](C)CC)C(=O)N(C)CC(=O)N(C)[C@H]3CCCCCN(C3=O)[C@@H](Cc3ccc(F)c(Cl)c3)C(=O)N(C)CC(=O)N[C@@H](CCc3cc(F)c(C(F)(F)F)c(F)c3)C(=O)N2C1 [PP0919]
IC50 [1]: 110 nM | HRAS /KRAS [2, 4]: B (a compound having 3 or more and less than 10 is denoted as B) | NRAS /KRAS [3, 5]: B (a compound having 3 or more and less than 10 is denoted as B)

CCCN1C(=O)CN(C)C(=O)CN(CC)C(=O)[C@H]([C@@H](C)CC)NC(=O)[C@H](CC(C)C)N(C)C(=O)C[C@@H](C(=O)N(C)C)NC(=O)[C@H](C2CCCC2)N(C)C(=O)C2(CCCC2)NC(=O)[C@@H]2CCCN2C(=O)[C@H](CCc2ccc(C(F)(F)F)c(Cl)c2)NC(=O)CN(C)C(=O)[C@@H]1Cc1ccc(C(F)(F)F)cc1 [PP0367] ([NMeL]I[NEtG][Sar][NPrPhe(4-CF3)][Sar][hPhe(3-Cl-4-CF3)]P[Ac5c][NMeGly(cPent)]D-NMe2; lactam N-11)
IC50 [1]: 99.1 nM | HRAS /KRAS [2, 4]: B (a compound having 3 or more and less than 10 is denoted as B) | NRAS /KRAS [3, 5]: B (a compound having 3 or more and less than 10 is denoted as B)

CCCC[C@@H]1NC(=O)[C@H](CCc2ccc(C(F)(F)F)c(Cl)c2)NC(=O)CN(C)C(=O)[C@H](Cc2ccc(C)cc2)N(C)C(=O)CN(C)C(=O)CN(C)C(=O)[C@H]([C@@H](C)CC)NC(=O)[C@H](CC(C)C)N(C)C(=O)C[C@@H](C(=O)N2CCCCC2)N(C)C(=O)[C@H](CC(C)C)NC(=O)C(C)(C)N(C)C1=O [PP0049] ([NMeL]I[Sar][Sar][NMePhe(4-Me)][Sar][hPhe(3-Cl-4-CF3)][Nle][NMeAib]L[NMeD]-Piperidide; lactam N-11)
IC50 [1]: 201 nM | HRAS /KRAS [2, 4]: C (A compound having a KD ratio of 0.1 or more and less than 3 is denoted as C) | NRAS /KRAS [3, 5]: C (A compound having a KD ratio of 0.1 or more and less than 3 is denoted as C)

CCO[C@@H]1C[C@H]2C(=O)NC3(CC(C)(C)C3)C(=O)N(C)[C@@H](C3CCCC3)C(=O)N(C)[C@H](C(=O)N3CCCCC3)CC(=O)N(C)[C@H]3CCCCCc4ccc(cc4)C[C@@H](C(=O)N(C)CC(=O)N[C@@H](CCc4ccc(C(F)(F)F)c(OC)c4)C(=O)N2C1)N1CC/C=C\C[C@@H](C1=O)N(C)C(=O)CN(C)C(=O)[C@H]([C@@H](C)CC)NC3=O [PP3036]
IC50 [1]: 8 nM | HRAS /KRAS [2, 4]: B (a compound having 3 or more and less than 10 is denoted as B) | NRAS /KRAS [3, 5]: A (a compound having 10 or more and less than 20 is denoted as A)

CCC[C@H]1C(=O)N[C@@H]([C@@H](C)CC)C(=O)N(C)CC(=O)N(C)[C@H]2C/C=C\CCN(C2=O)[C@@H](Cc2ccc(C(F)(F)F)cc2)C(=O)N(C)CC(=O)N[C@@H](CCc2cc(F)c(C(F)(F)F)c(F)c2)C(=O)N2C[C@H](OCC)C[C@H]2C(=O)NC2(CCC2)C(=O)N(C)[C@@H](C2CCCC2)C(=O)N(C)[C@H](C(=O)N(C)CCC)CC(=O)N1C [PP1389]
IC50 [1]: 2.4 nM | HRAS /KRAS ([2]; ratio of KD with respect to HRAS wild-type protein to KD with respect to KRAS): A (a compound having 10 or more and less than 20 is denoted as A) | NRAS /KRAS ([3]; ratio of KD with respect to GDP-bound NRAS wild-type protein to KD with respect to KRAS): AA (a compound having 20 or more is denoted as AA)

CCCN1C(=O)[C@@H]2CCN2C(=O)CN(C)C(=O)[C@H]([C@@H](C)CC)NC(=O)[C@H](CC(C)C)N(C)C(=O)C[C@@H](C(=O)N(C)C)NC(=O)[C@H](C2CCCC2)N(C)C(=O)C2(CCC2)NC(=O)[C@@H]2C[C@@H](OCC)CN2C(=O)[C@H](CCc2ccc(C(F)(F)F)c(Cl)c2)NC(=O)CN(C)C(=O)[C@@H]1Cc1ccc(C(F)(F)F)cc1 [PP0390] ([NMeL]I[Sar][Aze][NPrPhe(4-CF3)][Sar][hPhe(3-Cl-4-CF3)][Hyp](Et)[Ac4c][NMeGly(cPent)]D-NMe2; lactam N-11)
IC50 [1]: 7.6 nM | HRAS /KRAS [2, 6]: B (a compound having 3 or more and less than 10 is denoted as B) | NRAS /KRAS [3, 7]: C (A compound having a KD ratio of 0.1 or more and less than 3 is denoted as C)

CCCN1C(=O)CN(C)C(=O)CNC(=O)[C@H]([C@@H](C)CC)NC(=O)[C@H](CC(C)C)N(C)C(=O)C[C@@H](C(=O)N2CCOCC2)NC(=O)[C@H](C2CCCC2)N(C)C(=O)C2(CCCC2)NC(=O)[C@@H]2C[C@@H](OCC)CN2C(=O)[C@H](CCc2ccc(C(F)(F)F)c(Cl)c2)NC(=O)CN(C)C(=O)[C@@H]1Cc1ccc(C(F)(F)F)cc1 [PP0329] ([NMeL]IG[Sar][NPrPhe(4-CF3)][Sar][hPhe(3-Cl-4-CF3)][Hyp](Et)[Ac5c][NMeGly(cPent)]D-Morpholide; lactam N-11)
IC50 [1]: 65.8 nM | HRAS /KRAS [2, 4]: C (A compound having a KD ratio of 0.1 or more and less than 3 is denoted as C) | NRAS /KRAS [3, 5]: B (a compound having 3 or more and less than 10 is denoted as B)

CCO[C@@H]1C[C@H]2C(=O)NC3(CCC3)C(=O)N(C)[C@@H](C3CCCC3)C(=O)N(C)[C@H](C(=O)N3CCOCC3)CC(=O)N(C)[C@@H](CC3CCCCC3)C(=O)N[C@@H]([C@@H](C)CC)C(=O)N(C)CC(=O)N(C)[C@H]3CCCCN(C3=O)[C@@H](Cc3ccc(C(F)(F)F)cc3)C(=O)N(C)CC(=O)N[C@@H](CCc3cc(F)c(C(F)(F)F)c(F)c3)C(=O)N2C1 [PP0716]
IC50 [1]: 6.3 nM | HRAS /KRAS [2, 6]: B (a compound having 3 or more and less than 10 is denoted as B) | NRAS /KRAS [3, 7]: C (A compound having a KD ratio of 0.1 or more and less than 3 is denoted as C)

CC[C@H](C)[C@@H]1NC(=O)[C@H](CCOC)N(C)C(=O)C[C@@H](C(=O)N(C)CC)N(C)C(=O)[C@H](C2CCCC2)N(C)C(=O)C2(CC(C)(C)C2)NC(=O)[C@@H]2C[C@H](C)CN2C(=O)[C@H](CCc2cc(F)c(C(F)(F)F)c(F)c2)NC(=O)CN(C)C(=O)[C@H](Cc2ccc(C(F)(F)F)cc2)N2CC/C=C\C[C@@H](C2=O)N(C)C(=O)CN(C)C1=O [PP1972]
IC50 [1]: 13.2 nM | HRAS /KRAS [2, 6]: A (a compound having 10 or more and less than 20 is denoted as A) | NRAS /KRAS [3, 7]: A (a compound having 10 or more and less than 20 is denoted as A)

CCCN1C(=O)CN(C)C(=O)CNC(=O)[C@H]([C@@H](C)CC)NC(=O)[C@H](CC(C)C)N(C)C(=O)C[C@@H](C(=O)N2CCOCC2)N(C)C(=O)[C@H](C2CCCC2)N(C)C(=O)C2(CCCC2)NC(=O)[C@@H]2C[C@H](C)CN2C(=O)[C@H](CCc2ccc(C(F)(F)F)c(Cl)c2)NC(=O)CN(C)C(=O)[C@@H]1Cc1ccc(C(F)(F)F)cc1 [PP0449] ([NMeL]IG[Sar][NPrPhe(4-CF3)][Sar][hPhe(3-Cl-4-CF3)][Pro(4S-Me)][Ac5c][NMeGly(cPent)][NMeD]-Morpholide; lactam N-11)
IC50 [1]: 9.2 nM | HRAS /KRAS [2, 6]: C (A compound having a KD ratio of 0.1 or more and less than 3 is denoted as C) | NRAS /KRAS [3, 7]: C (A compound having a KD ratio of 0.1 or more and less than 3 is denoted as C)
